Here are results for one molecule from patent US10513519B2, “Solid forms of (1S,4S)-4-(2-(((3S,4R)-3-fluorotetrahydro-2H-pyran-4-yl)amino)-8-((2,4,6-trichlorophenyl)amino)-9H-purin-9-yl)-1-methylcyclohexane-1-carboxamide and methods of their use” (Signal Pharmaceuticals, LLC, priority 2016, dated 2019).

Series [1] in a line: Stability of free base in solution and in solid state under stress conditions. It is filed as physicochemical.
A short description of series [2]: Solubility in biorelevant media (FeSSIF, FaSSIF, FaSSGF, FeSSGF).
Series [3] is described as follows: physchem. To be noted: FaSSGF, fassgf or other biorelevant.
A short description of series [4]: physchem. To be noted: simulated gastric fluid, thermodynamic from solid.
Series [5] is described as follows: Solid state stability of salt forms and free base. It is filed as physicochemical.
A short description of series [6]: Dynamic vapor sorption (hygroscopicity). It is filed as physicochemical. To be noted: DVS; listed as monohydrate free base. As to the method: Dynamic vapor sorption (DVS) was measured using DVS advantage (Surface Measurement Systems Ltd). The samples were tested under isotherm (25° C.) at a targeted RH of 0 to 95% full cycle in step mode. For an isotherm test, the chamber temperature was maintained by a water bath at constant 25.0±1.0° C. The relative humidity in the sample chamber was generated by combining different flows of wet and dry nitrogen with variable flow rates. The analysis was performed in 10% RH increments. Sampling rate was 1 sec save data rate is 20 sec. The dm/dt (%) value was set at 0.001 with a dm/dt window of 5 min., a minimum stability duration time of 10 min, and a maximum stage time of 180 min. The sample's equilibrium weight corresponding to each RH was recorded. A sorption isotherm was obtained by plotting equilibrium moisture content versus RH.
Hygroscopicity was determined on a Surface Measurement Systems DVS. A sample size of 5-20 mg was loaded into the DVS instrument sample pan and the sample was analyzed on a DVS automated sorption analyzer at room temperature. The relative humidity was increased from 0% to 90% RH at 10% RH step, then decreased in a similar manner to accomplish a full adsorption/desorption cycle.

Series [7] in a line: Solubility of salt forms and free base in water, SGF, SIF and 0.5% HPMC in […] Tween 80.

What is called solubility is the concentration that dissolves in the medium under given conditions. High values mean much dissolved substance, low ones little dissolved substance. What is called thermodynamic solubility is solubility found after equilibrating the solid with the medium.

Converted amounts (≈) assume the structure as drawn. Read-outs that look alike come from different tables or passages of the source. Bounds are passed on as bounds.

For `C[C@]1(C(N)=O)CC[C@@H](n2c(Nc3c(Cl)cc(Cl)cc3Cl)nc3cnc(N[C@@H]4CCOC[C@H]4F)nc32)CC1` [Free Base], the “Conc. at 24 Hrs” value worked out at 3 µg/mL. The “temperature above which crystal form of monohydrate changes” value in series [1] was greater than 60 °C. Also, in series [1] (pH 1.2 to 7.5, 40° C.), the stability in solution entry is “stable”. For the same molecule, the “chemical and physical stability in solid state under stress conditions” value in series [1] (solid state, stress conditions) is on record as “up to seven weeks”. In series [2] (FaSSGF), the pH is given as 2.77. The pH in series [2] (FaSSIF) is reported as 6.37. Further, the pH in series [2] (FeSSGF) is recorded as 6.23. In series [2] (FeSSIF), this molecule returned a pH of 4.95. For the setting “pH 4.23”, the “Conc. at 24 Hrs” value came to 178 µg/mL. In the series “physchem [3]”, the concentration in solution (solubility) came to 3.85 mg/mL (≈ 6.74 mM). The molecule further returned a solubility (thermodynamic) at 24 h in the series “physchem [4]” of 3.48 mg/mL (≈ 6.1 mM). Moreover, in series [5], the “solid state stability (in words)” value was “chemically and physically stable in solid state”. Also, the “Physical (40° C./75% RH)” value in series [5] (40° C./75% RH) is recorded as “Stable”. For the same molecule, in series [5] (60° C.), the “Chemical (60° C.) RRT2.2” value was less than 0.03% and the “Physical (60° C.)” value is reported as “Dehydration (−),”. The “hygroscopicity (in words)” value in series [6] is “slightly hygroscopicity”. Besides, in series [7] (0.5% HPMC/[…] Tween80), the pH at final is 4.23. The pH at final in series [7] (SGF) turned out to be 1.93. Moreover, the pH at final in series [7] (SIF) came to 7.33. Besides, the pH at final in series [7] (Water) was 8.11.
